From PubChem BioAssay AID2368 (The Scripps Research Institute Molecular Screening Center, 2010)

Molecular target: Protein phosphatase methylesterase 1 (Homo sapiens) (UniProt Q9Y570)
Test: PME-1 activity inhibition following gel filtration – gel-based ABPP, late-stage follow-up (AID 2368)
Conditions: PME-1 labeling, active compounds read high, concentration not given here

Protein phosphatase methylesterase 1 (Homo sapiens), sequence (Q9Y570 whole entry, looked up): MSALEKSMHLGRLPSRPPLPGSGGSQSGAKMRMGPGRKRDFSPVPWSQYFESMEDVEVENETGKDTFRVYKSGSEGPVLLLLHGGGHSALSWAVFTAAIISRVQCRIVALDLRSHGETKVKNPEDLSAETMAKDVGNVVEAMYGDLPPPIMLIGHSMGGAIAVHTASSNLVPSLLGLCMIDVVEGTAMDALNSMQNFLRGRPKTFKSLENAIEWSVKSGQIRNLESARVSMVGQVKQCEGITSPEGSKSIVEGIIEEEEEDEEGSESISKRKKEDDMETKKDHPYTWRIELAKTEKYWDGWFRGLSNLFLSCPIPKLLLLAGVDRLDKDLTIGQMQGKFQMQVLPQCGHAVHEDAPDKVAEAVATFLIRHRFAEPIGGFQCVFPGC

| inhibition [%] | Compound |
| --- | --- |
| > 50 | N#C/C(=C\c1cccn1S(=O)(=O)c1cccc(C#N)c1)S(=O)(=O)c1ccc(F)cc1 |
| > 50 | N#C/C(=C\c1cccn1S(=O)(=O)c1cccc([N+](=O)[O-])c1)S(=O)(=O)c1ccc(F)cc1 |
